Measured values as given in US9061981B2, “Diphenyl substituted cyclohexane derivatives, useful as modulators of the estrogen receptors beta” (Acadia Pharmaceuticals Inc., priority 2011, dated 2015).

Columns and labels:
ERα = molecular target: T1, ERα (Homo sapiens, UniProt P03372); experiment: R-SAT functional assay, ERα; type: cell-based; parameters: expressed in transfected cells; host or cells: NIH-3T3 fibroblasts, transient transfection; conditions: NIH-3T3 cells; for EC50: na = not active, read-out: R-SAT Erα pEC50 (converted)
T1 sequence (P03372 1-595): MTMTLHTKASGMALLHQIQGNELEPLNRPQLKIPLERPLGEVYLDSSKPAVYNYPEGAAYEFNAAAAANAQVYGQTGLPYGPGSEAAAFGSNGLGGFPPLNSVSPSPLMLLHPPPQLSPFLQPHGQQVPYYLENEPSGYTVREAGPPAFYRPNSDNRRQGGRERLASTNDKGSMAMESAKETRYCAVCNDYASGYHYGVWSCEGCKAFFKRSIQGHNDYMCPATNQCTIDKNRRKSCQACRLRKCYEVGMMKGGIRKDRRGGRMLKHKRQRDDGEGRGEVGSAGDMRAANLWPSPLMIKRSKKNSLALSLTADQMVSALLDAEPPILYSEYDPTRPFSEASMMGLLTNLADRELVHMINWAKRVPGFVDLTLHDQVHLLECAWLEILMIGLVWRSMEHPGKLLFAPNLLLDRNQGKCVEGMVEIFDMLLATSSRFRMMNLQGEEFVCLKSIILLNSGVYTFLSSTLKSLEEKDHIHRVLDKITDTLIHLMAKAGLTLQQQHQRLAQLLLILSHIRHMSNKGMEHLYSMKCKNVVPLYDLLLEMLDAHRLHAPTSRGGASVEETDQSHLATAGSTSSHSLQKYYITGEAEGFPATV
Description: R-SAT® (Receptor Selection and Amplification Technology) is a cell-based functional assay that allows one to monitor receptor-dependent proliferative responses and has been described elsewhere. […] This process is achieved by partial cellular transformation via loss of contact inhibition and growth factor dependency. Monitoring is achieved by transfecting the cells with a β-galactosidase reporter gene vector whose expression is under a constitutively active promoter. Briefly, NIH-3T3 fibroblasts were plated overnight in 96-wells plates in DMEM 10% calf serum (Hyclone) and grown to 60-70% confluency prior to transfection. Transient transfections were performed using Polyfect (Qiagen) according to manufacturer's instructions. Typically a transfection mix would consist of the receptor and the β-galactosidase expression vectors. Sixteen hours post-transfection, cells were incubated with different doses of ligand in DMEM containing 30% Ultraculture (Hyclone) and 0.4% calf serum (Hyclone) to generate a dose response curve. […] Plates were read using a microplate reader at 420 nm. Data from R-SAT® assays were fit to the equation: r=A+B(x/(x+c)), where A=minimum response, B=maximum response minus minimum response, c=EC50, r=response, and x=concentration of ligand. Curves were generated using the curve fitting softwares Excel Fit and GraphPad Prism (San Diego, Calif.). Luciferase Reporter Gene Assay

[1] = tested on: bilateral 6-hydroxydopamine (6OHDA) lesion of the substantia nigra; experiment: Bilateral 6OHDA lesion of the substantia nigra, behavioral assessment; type: in vivo, Male rats; conditions: for prepulse inhibition (sensorimotor gating): 6OHDA rats, once daily 7 days sc, 10 mg/kg (estradiol 100 μg/kg); for motor performance (spontaneous locomotor activity, rotorod, challenging beam) / novel object recognition (cognition): rat, in vivo; for novel object recognition (cognition): sc, 10 mg/kg
Procedure: Male rats received baseline assessment of weight, motor function (spontaneous locomotor behavior, rotorod performance) and sensorimotor gating (prepulse inhibition). Subjects were assigned to treatment conditions to equalize performance on all these measures. Subjects were then treated once daily for 7 days with either sesame oil vehicle, estradiol (100 μg/kg sc), Comparative substance 131 (10 mg/kg sc), Compound 8 (10 mg/kg sc), Comparative substance 623 (10 mg/kg sc) or Comparative substance 957 (10 mg/kg sc). On the second day of treatment, subjects received bilateral sham or 6OHDA lesions (8 μg in 4 μl) of the substantia nigra (A/P−5.0 mm, M/L±1.6 mm, D/V−8.2 mm) following the atlas of Paxinos and Watson (Paxinos, G., Watson, C., The Rat Brain in Stereotaxic Coordinates, Fourth Edition, New York: Academic Press, Spiral Bound, 1998). Behavioral assessments of motor function (spontaneous locomotion, rotorod and traversing a challenging beam), cognition (novel object recognition) and sensorimotor gating (prepulse inhibition) began after the final day of treatment. Following behavioral assessment, SN and striatal tissue were collected in order to determine the intactness of the nigrostriatal dopamine system.

ERβ = ERβ (Homo sapiens, UniProt Q92731); experiment: Competitive 3H-estradiol binding assay, ERβ; parameters: expressed in transfected cells; host or cells: HEK293 cells, transient transfection
Sequence of ERβ (Q92731 whole entry, species assumed): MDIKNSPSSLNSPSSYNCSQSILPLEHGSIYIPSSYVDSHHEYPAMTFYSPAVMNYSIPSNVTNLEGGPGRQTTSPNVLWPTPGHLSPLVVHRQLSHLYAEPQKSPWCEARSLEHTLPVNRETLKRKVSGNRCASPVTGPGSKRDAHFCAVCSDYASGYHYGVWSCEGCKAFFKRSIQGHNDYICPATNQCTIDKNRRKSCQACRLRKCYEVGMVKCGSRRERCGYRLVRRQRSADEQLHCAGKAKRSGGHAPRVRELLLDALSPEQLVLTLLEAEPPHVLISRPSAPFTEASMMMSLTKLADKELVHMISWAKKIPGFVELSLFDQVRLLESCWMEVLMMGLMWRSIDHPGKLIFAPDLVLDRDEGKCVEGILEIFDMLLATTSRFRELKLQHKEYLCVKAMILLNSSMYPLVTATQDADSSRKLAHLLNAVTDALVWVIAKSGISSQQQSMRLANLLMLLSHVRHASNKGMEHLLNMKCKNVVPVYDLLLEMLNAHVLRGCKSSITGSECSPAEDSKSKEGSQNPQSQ
Procedure: Cells were then harvested by scraping in ice-cold PBS and subsequently lysed using a cold buffer containing 10 mM Tris pH 7.4, 1 mM EDTA, 1 mM DTT before being subjected to polytron twice for 10 seconds. Cytosolic extracts were isolated by centrifugation at 15000 g for 30 minutes at 4° C. Competitive binding of the test compounds or the estradiol control was performed on 20 μL extract by overnight incubation at 4° C. in a total volume of 100 μL containing 1 nM ^3H-estradiol (Perkin Elmer, Boston, Mass.). The bound fraction was separated from the unbound one by the addition of 100 μL of Dextran coated charcoal, incubated for 10 minutes and subsequent centrifugation at 1000 rpm for 10 minutes. Samples (100 μL per sample) were then analyzed by liquid scintillation. Data was then analyzed using the curve fitting software GraphPad Prism.

[2] = Non-specific binding assessment across tissue-free inserts; type: in vitro ADME; conditions: tissue-free insert, DPBS; for recovery at 120 min, 1 μM: tissue-free Millipore Millicell culture plate inserts; for Papp at 120 min, 1 μM: read-out: apparent permeability coefficient (Papp) through cell-free insert
Procedure: Non-specific binding assessment (NSB) was conducted in a tissue-free plate containing Millipore Millicell culture plate inserts that were the same ones that were used in the permeation study across the culture tissues. Each of the tested compounds was dosed at 1 μM with DPBS buffer. Sampling time for the receiver chambers was 120 minutes after dosing, while the donor sides were sampled at 0 and 120 minutes after dosing. The NSB assessments consisted of the permeation rates across tissue-free inserts and the percent recovery by calculating the mass balance of the test campounds at the end of the experiment. The recovery assessment was used to assess the non-specific binding property of the tested compounds to the assay apparatus.

For Oc1ccc(C2(c3ccccc3F)CCC(F)(F)CC2)cc1 [Compound 8, 4-(4,4-Difluoro-1-(2-fluorophenyl)cyclohexyl)phenol], the “R-SAT Erα % Eff” value (ERα) was 62%, the EC50 (ERα) was 1000 nM and the “prepulse inhibition (sensorimotor gating)” value (shortened to “prepulse inhibition”) [1] was “prevented the 6OHDA-induced deficit in PPI”. The “motor performance (spontaneous locomotor activity, rotorod, challenging beam)” value (“motor performance” for short) [1] was “prevented the impairment”, the “novel object recognition (cognition)” value [1] was “showed improved memory” and the Ki (ERβ) was 6.31 nM. The recovery at 120 min, 1 μM [2] was 57% and the Papp at 120 min, 1 μM [2] was 19.8 ×10⁻⁶ cm/s.

In the case of Oc1ccc(C2(c3cccc(F)c3Cl)CCCCC2)cc1 [Compound 623], the “R-SAT Erα % Eff” value (ERα) is reported as 45%, the EC50 (ERα) is reported as 398 nM and the “prepulse inhibition” value [1] is reported as “prevented the 6OHDA-induced deficit in PPI”. The “motor performance” value [1] was “prevented the impairment”, the “novel object recognition (cognition)” value [1] was “showed improved memory” and the Ki (ERβ) was 6.31 nM. It also gave a recovery at 120 min, 1 μM [2] of 22% and a Papp at 120 min, 1 μM [2] of 1.17 ×10⁻⁶ cm/s.

For Oc1ccc(C2(c3ccccc3Cl)CCCCC2)cc1F [Compound 957], the “R-SAT Erα % Eff” value (ERα) was 58%, the EC50 (ERα) was 631 nM and the “prepulse inhibition” value [1] was “prevented the 6OHDA-induced deficit in PPI”. For the same molecule, the “motor performance” value [1] was “prevented the impairment”, the “novel object recognition (cognition)” value [1] was “did not reverse the cognitive deficit” and the Ki (ERβ) was 15.8 nM. The recovery at 120 min, 1 μM [2] was 18% and the Papp at 120 min, 1 μM [2] was 0.881 ×10⁻⁶ cm/s.
